We go through 4 compounds from patent publication US12252524B2, “GIP/GLP1 co-agonist compounds” (Eli Lilly and Company, priority 2018, dated 2025).

Molecules are shown by their SMILES. Numbered stars: 1 amine (or outer) side, 2 acyl side, 3 side chain; on linkers, the order of the positions; unused ones are H or OH. Square brackets hold non-standard residues; d marks the D form. Side chains are listed from the residue outwards. Peptide text beside a SMILES is read from it. * marks the point of attachment. C20 diacid = O=C(O)CCCCCCCCCCCCCCCCCCC(=O)*; C18 diacid = O=C(O)CCCCCCCCCCCCCCCCC(=O)*; γGlu = O=C(O)[C@H](CCC(=O)[*:2])N[*:1]; αMeY = C[C@](N)(Cc1ccc(O)cc1)C(=O)O; αMeL = CC(C)C[C@](C)(N)C(=O)O; Orn = NCCC[C@H](N)C(=O)O; AEEA = NCCOCCOCC(=O)O; Aib = CC(C)(N)C(=O)O

The target of one assay is T1, human Gcg receptor (Homo sapiens, UniProt P47871).
T1 construct: expressed in transfected cells; crude membranes
In words: [125I]-Glucagon binding (SPA), human Gcg receptor. The settings on record: read-out: hGLcgR Ki, nM (SEM, n). In outline: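 Scintillation counts are taken after membranes and WGA beads incubate and settle for 12 hours at room temperature. Buffer is 25 mM HEPES, pH 7.4, with CaCl2, MgCl2, bacitracin and Tween-20. Ki values, from four-parameter IC50 fits, are geometric means over independent days.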

Assay [1] addresses T2, human GLP-1R (Homo sapiens, UniProt P43220). In words: GLP-1R HEK293 cell membrane [35S]GTPγS binding assay. It counts as biochemical. On the set-up: expressed in transfected cells; host or cells: HEK293 cells expressing human GLP-1R; membranes. To be noted: HEK293 cell membranes expressing human GLP-1R, [35S]GTPγS binding; read-out: hGLP1R GTPgS Rel EC50 nM (SEM, n). In outline: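 Agonist-driven Gαs activation read as [35S]GTPγS ([…]) binding to receptor-expressing HEK293 membranes, 30 min at room temperature, pH 7.4. Detection by anti-Gαs immunocapture on scintillation beads; EC50 derived from four-parameter logistic concentration-response fit.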
A general note: GTPγS resists hydrolysis and so accumulates on activated G proteins.

In assay [2] the target is human GLP-1 receptor (GLP-1R) (Homo sapiens, UniProt P43220). In words: cAMP pharmacological functional assay in presence of casein, hGLP-1R. It counts as cell-based. The settings on record: HEK293 cells expressing hGLP-1R, 0.1% Casein, geometric mean; read-out: hGLP1R cAMP Rel EC50 nM (SEM, n).
The target of assay [3] is T2, human GLP-1R. The assay can be described thus: GLP-1R CHO cell β-arrestin recruitment assay. The format is cell-based. On the set-up: host or cells: CHO-K1 PathHunter cells, assay-ready frozen. To be noted: for EC50: CHO-K1 cells, PathHunter β-arrestin-2 recruitment, 0.1% casein, read-out: hGLP1R B-Arrestin2 Rel EC50 uM (SEM, n); for hGLP1R B-Arrestin2 % Top: normalized to GLP-1 maximum control. The procedure, abridged: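 Peptide-induced β-arrestin-2 recruitment measured by enzyme-fragment complementation luminescence after 90 min at 37 °C plus 60 min detection at RT.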
(Arrestin recruitment assays detect the binding of arrestin to an activated receptor.)

For assay [4], the target named is T2, human GLP-1R. The assay can be described thus: [125I]-GLP-1 binding (SPA), human GLP-1 receptor. More on the design: expressed in transfected cells; crude membranes. To be noted: read-out: hGLP1R Ki, (nM) (SEM, n). In outline: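 Ki values are geometric means with SEM over independent replicates on different days, derived from IC50s fitted by four-parameter nonlinear regression. The assay used crude cell membranes in HEPES buffer, pH 7.4, containing CaCl2, MgCl2, bacitracin and TWEEN-20.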

Assay [5] has as its target T3, gastric inhibitory peptide receptor (GIPR) (Homo sapiens, UniProt P48546).
T3 sequence (P48546 22-466): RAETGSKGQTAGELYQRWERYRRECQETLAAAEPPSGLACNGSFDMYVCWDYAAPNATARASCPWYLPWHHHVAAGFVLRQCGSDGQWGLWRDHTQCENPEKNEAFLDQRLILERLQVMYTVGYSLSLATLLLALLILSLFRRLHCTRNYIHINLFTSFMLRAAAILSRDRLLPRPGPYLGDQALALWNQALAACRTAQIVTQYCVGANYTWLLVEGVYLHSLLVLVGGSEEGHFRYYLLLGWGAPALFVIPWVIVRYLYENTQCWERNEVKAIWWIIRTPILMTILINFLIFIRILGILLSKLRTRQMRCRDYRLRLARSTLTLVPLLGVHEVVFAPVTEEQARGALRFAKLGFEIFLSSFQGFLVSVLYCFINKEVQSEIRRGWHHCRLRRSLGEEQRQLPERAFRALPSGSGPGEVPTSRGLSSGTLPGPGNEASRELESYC
In words: cAMP pharmacological functional assay in presence of casein, hGIPR. The format is cell-based. The settings on record: HEK293 cells expressing hGIPR, 0.1% Casein, geometric mean; read-out: hGIPR cAMP Rel EC50 nM (SEM, n).

The target in a further assay is T4, human GIP receptor (Homo sapiens, UniProt P48546).
T4 construct: expressed in transfected cells; crude membranes
T4 sequence (P48546 22-466): T3 sequence (P48546 22-466)
In words: [125I]-GIP binding (SPA), human GIP receptor. To be noted: read-out: hGIPR Ki, nM (SEM, n).

T1 sequence (P47871 26-477): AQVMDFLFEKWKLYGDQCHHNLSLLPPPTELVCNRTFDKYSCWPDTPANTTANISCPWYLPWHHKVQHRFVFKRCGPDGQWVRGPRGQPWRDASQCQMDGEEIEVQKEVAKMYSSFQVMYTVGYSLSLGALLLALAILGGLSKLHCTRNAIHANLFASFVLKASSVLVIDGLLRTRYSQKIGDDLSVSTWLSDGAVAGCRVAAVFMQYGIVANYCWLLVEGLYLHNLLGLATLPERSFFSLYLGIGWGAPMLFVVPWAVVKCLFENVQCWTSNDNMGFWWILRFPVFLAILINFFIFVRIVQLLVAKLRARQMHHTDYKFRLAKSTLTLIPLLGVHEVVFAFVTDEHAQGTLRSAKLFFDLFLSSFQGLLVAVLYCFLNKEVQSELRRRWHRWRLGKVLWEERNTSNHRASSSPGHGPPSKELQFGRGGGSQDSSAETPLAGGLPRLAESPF
human GLP-1 receptor (GLP-1R), sequence (P43220 24-463): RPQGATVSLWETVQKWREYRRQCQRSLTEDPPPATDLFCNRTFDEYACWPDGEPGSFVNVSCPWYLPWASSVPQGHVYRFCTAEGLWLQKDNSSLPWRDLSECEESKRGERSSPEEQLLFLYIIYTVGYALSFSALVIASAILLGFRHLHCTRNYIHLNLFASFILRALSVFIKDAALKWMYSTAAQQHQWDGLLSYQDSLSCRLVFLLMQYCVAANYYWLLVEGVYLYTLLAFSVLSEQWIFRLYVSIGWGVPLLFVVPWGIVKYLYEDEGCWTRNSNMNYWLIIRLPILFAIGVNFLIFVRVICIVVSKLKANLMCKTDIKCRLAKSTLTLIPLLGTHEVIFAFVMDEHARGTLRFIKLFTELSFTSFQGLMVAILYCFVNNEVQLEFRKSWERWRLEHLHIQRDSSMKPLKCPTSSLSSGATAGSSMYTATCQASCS
T2 sequence (P43220 24-463): as above

What is called Ki is the equilibrium dissociation constant of an inhibitor or competing ligand from its target. One may read the EC50 as the concentration needed to bring the measured effect to its halfway point. Regarding `CC[C@H](C)[C@H](NC(=O)[C@H](CC(C)C)NC(=O)[C@](C)(Cc1ccc(O)cc1)NC(=O)[C@H](CCC(=O)O)NC(=O)[C@@H](NC(=O)[C@H](Cc1ccccc1)NC(=O)[C@H](CCC(=O)O)NC(=O)C(C)(C)NC(=O)[C@H](CCC(N)=O)NC(=O)[C@H](C)NC(=O)[C@H](CCCCNC(=O)COCCOCCNC(=O)COCCOCCNC(=O)CC[C@H](NC(=O)CCCCCCCCCCCCCCCCCCC(=O)O)C(=O)O)NC(=O)[C@H](CCCCN)NC(=O)[C@H](CC(=O)O)NC(=O)[C@H](CC(C)C)NC(=O)[C@](C)(CC(C)C)NC(=O)[C@@H](NC(=O)[C@H](CO)NC(=O)[C@H](Cc1ccc(O)cc1)NC(=O)[C@H](CC(=O)O)NC(=O)[C@H](CO)NC(=O)[C@@H](NC(=O)[C@H](Cc1ccccc1)NC(=O)[C@@H](NC(=O)CNC(=O)[C@H](CCC(=O)O)NC(=O)C(C)(C)NC(=O)[C@H](N)Cc1ccc(O)cc1)[C@@H](C)O)[C@@H](C)O)[C@@H](C)CC)[C@@H](C)CC)C(=O)N[C@@H](C)C(=O)NCC(=O)NCC(=O)N1CCC[C@H]1C(=O)N[C@@H](CO)C(=O)N[C@@H](CO)C(=O)NCC(=O)N[C@@H](C)C(=O)N1CCC[C@H]1C(=O)N1CCC[C@H]1C(=O)N1CCC[C@H]1C(=O)N[C@@H](CO)C(N)=O` [Example 292] (H-[dY][Aib]EGTFTSDYSI[αMeL]LDKK([AEEA-AEEA-γGlu-C20 diacid])AQ[Aib]EFIE[αMeY]LIAGGPSSGAPPPS-NH2; N-terminus assumed), the inhibition constant Ki at human Gcg receptor worked out at 595 nM; on human GLP-1R [4], 1.19 nM; at human GIP receptor, 0.0547 nM. Besides, the EC50 was 0.429 nM at human GLP-1R [1], 0.183 nM in assay [2], 0.00774 µM at human GLP-1R [3] and 0.0682 nM in assay [5]. Also, on human GLP-1R [3], the “hGLP1R B-Arrestin2 % Top” value stood at 29.0%.

Consider `CC[C@H](C)[C@H](NC(=O)[C@H](CC(C)C)NC(=O)[C@H](Cc1ccc(O)cc1)NC(=O)[C@H](CCC(=O)O)NC(=O)[C@@H](NC(=O)[C@H](Cc1ccccc1)NC(=O)[C@H](C)NC(=O)C(C)(C)NC(=O)[C@H](CCC(N)=O)NC(=O)[C@H](C)NC(=O)[C@H](CCCCNC(=O)COCCOCCNC(=O)COCCOCCNC(=O)CC[C@H](NC(=O)CCCCCCCCCCCCCCCCC(=O)O)C(=O)O)NC(=O)[C@H](CCCCN)NC(=O)[C@H](CC(=O)O)NC(=O)[C@H](CC(C)C)NC(=O)[C@H](CC(C)C)NC(=O)[C@@H](NC(=O)[C@H](CO)NC(=O)[C@H](Cc1ccc(O)cc1)NC(=O)[C@H](CC(=O)O)NC(=O)[C@H](CO)NC(=O)[C@@H](NC(=O)[C@H](Cc1ccccc1)NC(=O)[C@@H](NC(=O)CNC(=O)[C@H](CCC(=O)O)NC(=O)C(C)(C)NC(=O)[C@@H](N)Cc1ccc(O)cc1)[C@@H](C)O)[C@@H](C)O)[C@@H](C)CC)[C@@H](C)CC)C(=O)N[C@@H](CCC(=O)O)C(=O)NCC(=O)NCC(N)=O` [Example 267] (H-Y[Aib]EGTFTSDYSILLDKK([AEEA-AEEA-γGlu-C18 diacid])AQ[Aib]AFIEYLIEGG-NH2), for which the Ki at human Gcg receptor was 349 nM; on human GLP-1R [4], 1.57 nM; at human GIP receptor it was 0.0628 nM. The EC50 was 0.867 nM at human GLP-1R [1], 0.054 nM in assay [2], 0.00901 µM at human GLP-1R [3] and 0.108 nM in assay [5]. Moreover, on human GLP-1R [3], the “hGLP1R B-Arrestin2 % Top” value is on record as 16.5%.

For the compound `CC[C@H](C)[C@H](NC(=O)[C@H](CC(C)C)NC(=O)[C@H](Cc1ccc(O)cc1)NC(=O)[C@@H](CCC(=O)O)NC(=O)[C@@H](NC(=O)[C@H](Cc1ccccc1)NC(=O)[C@H](C)NC(=O)C(C)(C)NC(=O)[C@H](CCC(N)=O)NC(=O)[C@H](C)NC(=O)[C@H](CCCCNC(=O)COCCOCCNC(=O)COCCOCCNC(=O)CC[C@H](NC(=O)CCCCCCCCCCCCCCCCC(=O)O)C(=O)O)NC(=O)[C@H](CCCN)NC(=O)[C@H](CC(=O)O)NC(=O)[C@H](CC(C)C)NC(=O)[C@](C)(CC(C)C)NC(=O)[C@@H](NC(=O)[C@H](CO)NC(=O)[C@H](Cc1ccc(O)cc1)NC(=O)[C@H](CC(=O)O)NC(=O)[C@H](CO)NC(=O)[C@@H](NC(=O)[C@H](Cc1ccccc1)NC(=O)[C@@H](NC(=O)CNC(=O)[C@H](CCC(=O)O)NC(=O)C(C)(C)NC(=O)[C@H](N)Cc1ccc(O)cc1)[C@@H](C)O)[C@@H](C)O)[C@@H](C)CC)[C@@H](C)CC)C(=O)N[C@@H](C)C(=O)NCC(=O)NCC(=O)N1CCC[C@H]1C(=O)N[C@@H](CO)C(=O)N[C@@H](CO)C(=O)NCC(=O)N[C@@H](C)C(=O)N1CCC[C@H]1C(=O)N1CCC[C@H]1C(=O)N1CCC[C@H]1C(=O)N[C@@H](CO)C(N)=O` [Example 363] (H-[dY][Aib]EGTFTSDYSI[αMeL]LD[Orn]K([AEEA-AEEA-γGlu-C18 diacid])AQ[Aib]AFI[dE]YLIAGGPSSGAPPPS-NH2), the inhibitory constant (Ki) on human Gcg receptor was > 1020 nM; at human GLP-1R [4], 3.89 nM; at human GIP receptor, 0.17 nM. For the same compound, the EC50 on human GLP-1R [1] is 0.943 nM; in assay [2], 0.208 nM; on human GLP-1R [3] it was 0.135 µM; in assay [5], 0.145 nM. Besides, the “hGLP1R B-Arrestin2 % Top” value at human GLP-1R [3] came out at 22.1%.

In the case of `CC[C@H](C)[C@H](NC(=O)[C@H](CC(C)C)NC(=O)[C@](C)(Cc1ccc(O)cc1)NC(=O)[C@H](CCC(=O)O)NC(=O)[C@@H](NC(=O)[C@H](Cc1ccccc1)NC(=O)[C@H](CCC(=O)O)NC(=O)C(C)(C)NC(=O)[C@H](CCC(N)=O)NC(=O)[C@H](C)NC(=O)[C@H](CCCCNC(=O)COCCOCCNC(=O)COCCOCCNC(=O)CC[C@H](NC(=O)CCCCCCCCCCCCCCCCCCC(=O)O)C(=O)O)NC(=O)[C@H](CCCN)NC(=O)[C@H](CC(=O)O)NC(=O)[C@H](CC(C)C)NC(=O)[C@](C)(CC(C)C)NC(=O)[C@@H](NC(=O)[C@H](CO)NC(=O)[C@H](Cc1ccc(O)cc1)NC(=O)[C@H](CC(=O)O)NC(=O)[C@H](CO)NC(=O)[C@@H](NC(=O)[C@H](Cc1ccccc1)NC(=O)[C@@H](NC(=O)CNC(=O)[C@H](CCC(=O)O)NC(=O)C(C)(C)NC(=O)[C@H](N)Cc1ccc(O)cc1)[C@@H](C)O)[C@@H](C)O)[C@@H](C)CC)[C@@H](C)CC)C(=O)N[C@@H](C)C(=O)NCC(=O)NCC(=O)N1CCC[C@H]1C(=O)N[C@@H](CO)C(=O)N[C@@H](CO)C(=O)NCC(=O)N[C@@H](C)C(=O)N1CCC[C@H]1C(=O)N1CCC[C@H]1C(=O)N1CCC[C@H]1C(=O)N[C@@H](CO)C(N)=O` [Example 293], the inhibition constant Ki at human Gcg receptor was 668 nM; on human GLP-1R [4], 1.64 nM; at human GIP receptor, 0.0775 nM. The EC50 on human GLP-1R [1] worked out at 0.368 nM; in assay [2] it was 0.132 nM; at human GLP-1R [3], 0.00719 µM; in assay [5], 0.0562 nM. The “hGLP1R B-Arrestin2 % Top” value on human GLP-1R [3] was determined as 29.5%.
